In PMC9233675, “Ru(II) photocages enable precise control over enzyme activity with red light” (Nature Communications, 2022):
Where a chain is given by its changes, count along the chain named. “And” between values parts separate entries of the source, which are not always exact repeats. Identical values can stand only once. Like-named read-outs stand apart in the source and are kept apart here.

How the values were obtained:
[1] = Kinetic solubility by UV/Vis; format: physicochemical; details: Opti-MEM with 2% fetal bovine serum, room temperature, 3 hours; for Kinetic solubility C1: replicate 1; for Kinetic solubility C2: replicate 2; for Kinetic solubility C3: replicate 3
Procedure: Kinetic solubility was measured by UV/Vis. In this experiment, 14 μL of 10 mM DMSO stocks of complexes 4–6 were diluted in 700 μL of Opti-MEM™ with 2% fet al bovine serum and kept at room temperature for 3 hours. The solutions were then filtered using syringe-driven filters (FV12S) and concentrations were measured by UV/vis absorbance in a 96-well plate in triplicate. […]
4. Simulate in the NPT ensemble using a Berendsen thermostat and a Berendsen barostat with: […]
5. Simulate in the NPT ensemble using a Berendsen thermostat and a Berendsen barostat with: […]
6. Simulate in the NPT ensemble using a Berendsen thermostat and a Berendsen barostat with: […]

CYP1B1 = target: T1, CYP1B1 (Homo sapiens, UniProt Q16678); assay: In cell activity assay for CYP1B1 (7-ethoxyresorufin conversion, HEK293 T-Rex cells); details: for IC50: n = 3; for % Enzyme Activity: dark; for % Enzyme Activity red light: 660 nm light (58.7 J/cm2)
T1 sequence (Q16678 1-543): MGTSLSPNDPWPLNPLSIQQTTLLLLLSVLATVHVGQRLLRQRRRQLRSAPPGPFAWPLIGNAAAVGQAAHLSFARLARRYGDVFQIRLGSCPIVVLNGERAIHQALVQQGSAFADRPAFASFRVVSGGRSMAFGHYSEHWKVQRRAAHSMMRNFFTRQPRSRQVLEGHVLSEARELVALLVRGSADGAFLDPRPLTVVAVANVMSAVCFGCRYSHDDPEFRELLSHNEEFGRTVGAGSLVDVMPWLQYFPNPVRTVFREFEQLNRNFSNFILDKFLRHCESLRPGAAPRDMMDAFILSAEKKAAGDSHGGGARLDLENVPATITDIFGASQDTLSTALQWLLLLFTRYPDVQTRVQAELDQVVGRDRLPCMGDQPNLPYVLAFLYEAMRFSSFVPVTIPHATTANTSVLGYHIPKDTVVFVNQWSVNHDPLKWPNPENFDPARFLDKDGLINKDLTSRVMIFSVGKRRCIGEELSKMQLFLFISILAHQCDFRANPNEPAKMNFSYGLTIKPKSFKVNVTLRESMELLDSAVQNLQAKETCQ
Text: To rigorously assess the activity of inhibitors under biologically relevant conditions, an assay was developed for screening of CYP1B1 activity in live cells.
A stable HEK cell line was created with CYP1B1 expression under the control of tetracycline to facilitate regulated and titratable expression (see the Methods section for more details). […] The fluorogenic substrate, 7-ethoxyresorufin (REE), is a validated substrate for both CYPs and was used in both assays. Cytochrome P450 oxidoreductase (POR) is the required reductase partner for CYPs, and was also overexpressed in these systems to improve catalytic efficiency and the resulting signal for the assay.
Cell lines were generated in the HEK293 T-Rex cell line. Following transfection, cells were selected with 500 μg/mL Zeocin, and 7.5 μg/mL Blasticidin to create a stable pool. Inducible expression of CYP and POR was confirmed by immunoblot. […] The lines were maintained with 250 μg/mL Zeocin and 7.5 μg/mL Blasticidin to ensure continued selective pressure.
(§1) Cell lines were seeded onto Geltrex coated 96-well plates at 40,000 cells/well, and grown overnight in DMEM media containing 1 μg/mL tetracycline. The media was then replaced with Opti-MEM supplemented with 2% FBS and 1 μg/mL tetracycline. Compounds were serially diluted in Opti-MEM supplemented with 2% FBS and 1 μg/mL tetracycline and an equal volume of compound added to the cells (n = 3). Following a 1 h incubation, resorufin ethyl ether (REE; for CYP1B1 and 1A1) or dibenzylfluorescein (DBF; for 19A1) was added to the cells for a total concentration of 5 μM for REE and 1 μM for DBF. […] Dose–response curves were generated in Prism and normalized using the no-compound control (set as 100% activity) and the no-cell control (set as 0% activity; this value in the raw data reflects the background fluorescence of the dye alone).
For the light-activated compounds, the experiment was modified as follows: Cells were seeded and grown overnight as described above. Media was replaced with L-15 containing 1 μg/mL tetracycline; L-15 media was used in place of opti-MEM™ to maintain CO2 outside the incubator, and to prevent cellular damage from light. Compounds were serially diluted in L-15 with 1 μg/mL tetracycline and added to the cells followed by a 1 h incubation. […] REE or DBF was added as described above.

[2] = Stability of complexes at 37 °C in the dark (HPLC, UV/Vis); format: physicochemical; details: for Stability, % remaining at 24 h: 37 °C in H2O, dark
Procedure: The stability of each complex was assessed over 24 h under aqueous conditions at 37 °C (Supplementary Figs. 12–15). […] Given the potency of the caged inhibitor, thermal stability is of critical importance, making complex 6 the preferred photocaged candidate.
Opti-MEM with 2% fetal bovine serum (right) at 37 °C in the dark over the course of 0 (blue line) to 24 h (black dashed line). Compounds were tested in triplicate (n = 3), the data for one replicate are presented. Complexes 4 and 5 slowly degraded in the experiment condition (see HPLC traces, Figures S13–14). The decrease in absorbance for complex 6 is explained by the slow aggregation of the compound in the 96-well plate.
(1 picture or pasted object on this page, not shown here)
Supplementary Figure 13. a HPLC chromatogram analysis of stability of 4 (50 µM in di-H2O) before (black dashed line, purity > 92 % ) and after incubation at 37 °C for 24 hours (red line). At 24 hours, 43 % of 4 was […]
Supplementary Figure 14. HPLC chromatogram analysis of stability of 5 (50 µM in di-H2O) before (black dashed line, purity > 97 %) and after incubation at 37 °C for 24 hours (red line). At 24 hours, 50 % of 5 was observed […]
Supplementary Figure 15. HPLC chromatogram analysis of stability of 6 (40 µM in di-H O : MeCN mixture (4:1), […]
MeCN was added to reduce the aggregation) before (black dashed line, purity > 99.5 %) and after incubation at 37 °C for 24 hours. At 24 hours, less than 2 % degradation was observed (calculated by area, detection wavelength = […]
Supplementary Figure 16. HPLC chromatogram analysis of stability of 6 (40 µM) in 5 % DMSO / di-H2O with a 100 μM GSH, b 100 μM imidazole and c acidic condition (pH = 1) after incubation at 37 °C for 72 hours. Less than […]
detection wavelength = 280 nm). […]
imidazole and c acidic condition (pH = 1) after incubation at 37 °C for 72 hours. d At 72 hours less than 7 % degradation was observed by HPLC at pH = 1 (calculated by area, detection wavelength = 280 nm). Compounds were tested in triplicate (n = 3), the data for one replicate are presented.

[3] = Stability of compounds in rat liver microsomes; details: for Remaining, % (NCF=60min): rat liver microsomes, no co-factor (no NADPH); for CLint scaled / Remaining, % (T=60min) / half-life / microsomal CLint: rat, liver microsomes
CYP1B1 S269A = target: T2, CYP1B1 S269A (Homo sapiens, UniProt Q16678, S269A); assay: In cell CYP1B1 activity assay, S269A variant; details: for logSI S269A: log of the ratio of IC50 values mutant vs WT (Fig. 3c)
T2 sequence (Q16678 1-543 S269A): T1 sequence (Q16678 1-543) with S269A
Text: Site directed mutagenesis was used to probe the importance of specific active-site contacts identified through the structural assessment (Fig. 3a, b) and simulations. In all cases, conservative mutations were made to maintain polar or hydrophobic character and approximate size. The aromatic residues that frame the inhibitor binding site, Phe143 and Phe231, were mutated to Leu to determine the importance of the π interactions. In addition, the Ser127 residue, located in the upper corner of the active site on the B-C loop, was chosen for mutation based on the simulations. This amino acid transiently contacts the inhibitors, but also forms a hydrogen bond with Asp326 of the I-helix, and thus may impact the position of this helix with regards to the B-C loop. […] Rather than directly mutating these residues in the I-helix, neighboring residues Gln332 and Asp333 were targeted, with the hope of interrupting amino acid interactions that position the helix within the active site.
The ratio of IC50 values for the WT vs. the mutant are shown in Fig. 3c and reflects the importance of the specific contact; the log of the value is used to aid in visualization.
as §1

[4] = read-out: IC50 CYP1B1 Dark, Dark, conversion of 7-ethoxyresorufin (REE)
[5] = read-out: IC50 CYP1B1 Light, Light: 660 nm, 58.7 J/cm^2, REE

Remaining, % (NCF=60min) [3]	logSI S269A (CYP1B1 S269A)	Structure (SMILES)	Kinetic solubility C average [1]	Kinetic solubility C1 [1]	Kinetic solubility C2 [1]	Kinetic solubility C3 [1]	IC50 (CYP1B1; [4])	IC50 (CYP1B1; [5])	Stability, % remaining at 24 h ([2]; HPLC)	CLint scaled [3]	Remaining, % (T=60min) [3]	% Enzyme Activity (CYP1B1; CYP1B1, Log Conc 0.39794)	% Enzyme Activity (CYP1B1; CYP1B1, Log Conc 1)	% Enzyme Activity (CYP1B1; CYP1B1, Log Conc -0.20412)	% Enzyme Activity (CYP1B1; CYP1B1, Log Conc -0.80618)	% Enzyme Activity (CYP1B1; CYP1B1, Log Conc -1.40824)	% Enzyme Activity (CYP1B1; CYP1B1, Log Conc -2.0103)	% Enzyme Activity (CYP1B1; CYP1B1, Log Conc -2.61236)	% Enzyme Activity (CYP1B1; CYP1B1, Log Conc -3.21442)	% Enzyme Activity (CYP1B1; CYP1B1, Log Conc -3.81648)	other results
		COc1ccc(/C=C/c2cc[n+]([Ru-4]345([n+]6ccccc6-c6cccc([n+]63)-c3cccc[n+]34)[n+]3c(cc(C(=O)[O-])c4ccccc43)-c3cc(C(=O)[O-])c4ccccc4[n+]35)cn2)c(OC)c1 [Compound 5]	112.2 µM	113.3 µM	110.0 µM	113.0 µM	1730 nM	17 nM	50%												
63.7%	0.3	COc1cc(/C=C/c2ccc(OC)cc2OC)cc(OC)c1 [Compound 1, reference compound]																			
47.1%	0	COc1ccc(/C=C/c2ccncn2)c(OC)c1 [Compound 2]								369 mL/min/kg	0.3%	-2.174% and -0.1456% and -1.116%	-3.921% and -4.348% and -1.514%	3.833% and 3.484% and 3.455%	23.2531% and 22.7484% and 23.8839%	62.2283% and 59.9476% and 62.7038%	95.9724% and 93.1289% and 92.7213%	93.2065% and 104.319% and 107.88%	101.359% and 108.531% and 103.62%	105.357% and 94.6429%	half-life [3]: 6.75 min; microsomal CLint [3]: 205 µL/min/mg; IC50 (CYP1B1 S269A): 73 nM; Ratio IC50 (mutant)/ IC50 (WT), S269A (CYP1B1 S269A): 1; p IC50(uM) (CYP1B1; CYP1B1, negative log of the IC50 in μM): 1.119
		COc1ccc(/C=C/c2cc[n+]([Ru-4]345([n+]6ccccc6-c6cccc([n+]63)-c3cccc[n+]34)[n+]3c(cc(C(=O)[O-])c4ccccc43)-c3cc(C(=O)[O-])c4ccccc4[n+]35)cc2)c(OC)c1 [Compound 6]	36.9 µM	33.9 µM	38.5 µM	38.2 µM	1900 nM	0.3 nM	98.6%			37.9328% and 31.3874%	-5.282% and -4.5489%	83.1691% and 81.3495%	99.722% and 104.043%	109.148% and 104.422%	132.424% and 133.005%	99.1913% and 124.791%	127.496% and 122.416%	106.293% and 106.621%	% Enzyme Activity red light (CYP1B1; CYP1B1, Log Conc 0.39794): -2.704% and -2.565%; % Enzyme Activity red light (CYP1B1; CYP1B1, Log Conc 1): -2.451% and -1.971%; % Enzyme Activity red light (CYP1B1; CYP1B1, Log Conc -0.20412): -2.413% and -1.554%; % Enzyme Activity red light (CYP1B1; CYP1B1, Log Conc -0.80618): -1.314% and -2.085%; % Enzyme Activity red light (CYP1B1; CYP1B1, Log Conc -1.40824): -2.274% and -3.677%; % Enzyme Activity red light (CYP1B1; CYP1B1, Log Conc -2.0103): 1.567% and 0.556%; % Enzyme Activity red light (CYP1B1; CYP1B1, Log Conc -2.61236): 27.0407% and 26.6869%; % Enzyme Activity red light (CYP1B1; CYP1B1, Log Conc -3.21442): 48.2689% and 41.5972%; % Enzyme Activity red light (CYP1B1; CYP1B1, Log Conc -3.81648): 59.7422% and 63.5835%; % Enzyme Activity red light (CYP1B1; CYP1B1, Log Conc -4.41854): 78.0389% and 65.5042%; % Enzyme Activity red light (CYP1B1; CYP1B1, Log Conc -5.0206): 106.495% and 94.3139%; % Enzyme Activity red light (CYP1B1; CYP1B1, Log Conc -5.62266): 87.0104% and 112.181%; % Enzyme Activity (CYP1B1; CYP1B1, Log Conc -4.41854): 105.939% and 103.083%; % Enzyme Activity (CYP1B1; CYP1B1, Log Conc -5.0206): 100.606% and 105.459%; % Enzyme Activity (CYP1B1; CYP1B1, Log Conc -5.62266): 101.365% and 96.184%; degradation with GSH ([2]; 5 % DMSO / di-H2O, 100 μM GSH, 37 °C, 72 hours): less than 2%; degradation with imidazole ([2]; 5 % DMSO / di-H2O, 100 μM imidazole, 37 °C, 72 hours): less than 2%; degradation at 24 hours ([2]; 37 °C, di-H2O : MeCN mixture (4:1), HPLC): less than 2%

Structure (SMILES)	Remaining, % (NCF=60min) [3]	logSI S269A (CYP1B1 S269A)	Kinetic solubility C average [1]	Kinetic solubility C1 [1]	Kinetic solubility C2 [1]	Kinetic solubility C3 [1]	IC50 (CYP1B1; [4])	IC50 (CYP1B1; [5])	Stability, % remaining at 24 h ([2]; HPLC)	CLint scaled [3]	Remaining, % (T=60min) [3]	% Enzyme Activity (CYP1B1; CYP1B1, Log Conc 0.39794)	% Enzyme Activity (CYP1B1; CYP1B1, Log Conc 1)	% Enzyme Activity (CYP1B1; CYP1B1, Log Conc -0.20412)	% Enzyme Activity (CYP1B1; CYP1B1, Log Conc -0.80618)	% Enzyme Activity (CYP1B1; CYP1B1, Log Conc -1.40824)	% Enzyme Activity (CYP1B1; CYP1B1, Log Conc -2.0103)	% Enzyme Activity (CYP1B1; CYP1B1, Log Conc -2.61236)	% Enzyme Activity (CYP1B1; CYP1B1, Log Conc -3.21442)	% Enzyme Activity (CYP1B1; CYP1B1, Log Conc -3.81648)	other results
COc1ccc(C=Cc2ccncc2)c(OC)c1 [Compound 3]	108.6%	0.8								241 mL/min/kg	1.4%	-5.843% and -5.409% and -4.402%	-2.892% and -0.02892% and -1.938%	-3.135% and -2.441% and -3.396%	0.2661% and -0.4628% and 0.4396%	4.865% and 3.164% and 4.917%	14.3229% and 13.9758% and 14.3403%	26.2625% and 28.9697% and 28.1888%	46.5321% and 40.302% and 39.9202%	56.0248% and 55.8165% and 54.8794%	half-life [3]: 10.4 min; microsomal CLint [3]: 134 µL/min/mg; % Enzyme Activity (CYP1B1; CYP1B1, Log Conc -4.41854): 73.8474% and 69.3527% and 65.1356%; % Enzyme Activity (CYP1B1; CYP1B1, Log Conc -5.0206): 73.3268% and 74.7498% and 84.3119%; % Enzyme Activity (CYP1B1; CYP1B1, Log Conc -5.62266): 93.7872% and 77.0753% and 77.7868%; % Enzyme Activity (CYP1B1; CYP1B1, Log Conc -6.22472): 92.9716% and 93.6311% and 94.2558%; % Enzyme Activity (CYP1B1; CYP1B1, Log Conc -6.82678): 109.545% and 110.274% and 80.1816%
